The text below walks through data of patent US5554728A, “Lipid conjugates of therapeutic peptides and protease inhibitors” (priority 1991, dated 1996).

In this assay the test system is HIV. The format is cell-based. As to the method:
Assay For The Reduction of HIV Syncytia Formed In HT4-6C Cells
The syncytia reduction assay as described by Larder, B. et al., science 243:1731-1734(1989) was used to measure the antiviral effect of protease inhibitor. A Hela cell line, HT4-6C, expressing the human CD4 receptor on its surface was trypsinized with 0.25% trypsin for 5 min. Cells were centrifuged to remove the residual trypsin, and the cell pellet was resuspended in DMEM with 10% FCS. HeLa cells were plated in 96 well plate (1×10^5 cells/well) overnight. Cell cultures were infected with HIV (approx. 100 PFU/well) for one hour. The […] were then prepared in stock solutions, and were then two fold diluted in 2% DMEM with 0.5% methylcellulose. 100 μl of each diluted antiviral agent is added into each well of HIV infected cells. The treated cell cultures were incubated in 37° C. CO2 incubator for 24 hours. Plates of HIV-infected cell cultures were fixed with methanol and stained with 1% crystal violet for 10 min., the dye is rinsed off with tap water. Each plate is dried and syncytia were counted. The antiviral effect of protease inhibitor is calculated by 50% syncytia reduction.

Where [1] appears, read: antiviral effect calculated by 50% syncytia reduction, HIV-infected HT4-6C (HeLa, human CD4) cells, 24 hours incubation, read-out: IC50.

Where two headings read alike, the source gives them in different places. Non-standard residues stand in square brackets, D forms with d. Residues, ends and D or L forms follow the SMILES beside them. *: point of attachment. d1Nal = N[C@H](Cc1cccc2ccccc12)C(=O)O; d2Nal = N[C@H](Cc1ccc2ccccc2c1)C(=O)O; Isobutyloxycarbonyl = CC(C)COC(=O)*; Hica(2S) = CC(C)C[C@H](O)C(=O)O; Pip = O=C(O)[C@@H]1CCCCN1

Broadly, the IC50 is the point on the concentration scale where inhibition reaches its midpoint.

For `CC(C)C(NC(=O)OC(C)(C)C)C(=O)NC(Cc1ccccc1)C(=O)OCC(O)C(O)COC(=O)C(Cc1ccccc1)NC(=O)C(NC(=O)OC(C)(C)C)C(C)C` (stereo not drawn) [EXAMPLE 24, (Boc-Val-Phe-O--CH2 --CHOH)2], the 50% inhibitory concentration (IC50) under setting [1] was 1000 nM.

On to `CC(C)(C)OC(=O)NC(CO)C(=O)NC(Cc1ccccc1)C(=O)OCC(O)C(O)COC(=O)C(Cc1ccccc1)NC(=O)C(CO)NC(=O)OC(C)(C)C` (stereo not drawn) [EXAMPLE 25, (Boc-Ser-Phe-O--CH2 --CHOH)2], for which the IC50 under setting [1] is 3000 nM.

`COC(=O)[C@@H]1CCCCN1C(=O)[C@@H](Cc1ccc2ccccc2c1)NC(=O)[C@H](C)NC(=O)[C@H](C)NC(C)=O` [EXAMPLE 27-30, Ac-Ala-Ala-(D-b-Nal)-Pip-OMe] (Ac-AA[d2Nal][Pip]-OMe) displayed an IC50 (24 h) above 100000 nM.

With `CC(C)COC(=O)N[C@H](Cc1ccccc1)C(=O)N[C@H](Cc1cccc2ccccc12)C(=O)N1CCCC[C@H]1C(=O)O[C@@H](CC(C)C)C(=O)N[C@H](C(N)=O)C(C)C` [EXAMPLE 27-40, i-Boc-(D-Phe)-(D-a-Nal)-Pip-(a-(OH)-Leu)-Val-NH2] (Isobutyloxycarbonyl-[dF][d1Nal][Pip][Hica(2S)]V-NH2), the IC50 (24 h) worked out at 10000 nM.
